# Experimental data: patent US9260440B2, “Fused tetra or penta-cyclic dihydrodiazepinocarbazolones as PARP inhibitors” (BeiGene, Ltd., priority 2011, dated 2016)
# pEC50: −log10 of the molar value.
# Test system: PARP PARylation in HeLa cells
# Assay: PARylation assay in HeLa cells
# Assay type: cell-based
# Conditions: Homo sapiens, H2O2 200 μM induced DNA damage
row,SMILES,pEC50
1,"O=C1NN=C2CC(c3ccccc3)Cc3[nH]c4cccc1c4c32 (stereo not drawn) [Compound 5, 2-phenyl-2,3,5,10-tetrahydro-[1,2]diazepino[3,4,5,6-def]carbazol-6(1H)-one]",8.00
2,"N[C@@H](Cc1ccccc1)C(=O)N1CC2=NNC(=O)c3cccc4[nH]c(c2c34)C1 [Compound 64, (S)-2-(2-amino-3-phenylpropanoyl)-2,3,4,9-tetrahydro-2,4,9,10-tetraazacyclohepta[def]fluoren-8(1H)-one]",7.32
3,"CN(C)c1ccc(C2CC3=NNC(=O)c4cc(F)cc5[nH]c(c3c45)C2)cc1 (stereo not drawn) [Compound 12, 2-(4-(dimethylamino)phenyl)-8-fluoro-2,3,5,10-tetrahydro-[1,2]diazepino[3,4,5,6-def]carbazol-6(1H)-one]",7.58
